Source: patent US20230278972A1, “SUBSTITUTED HALOALKYL SULFONANILIDE HERBICIDES” (FMC Corporation, priority 2020, published 2023)

Legend:
Assay type in all cases: in vivo
[1] = tested on: Oat, Wild (wild oat, Avena fatua); test: Test A1 preemergence, Oat, Wild
Method in brief: (§1)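 Seeds were first planted into a blend of loam soil and sand and given a preemergence directed soil spray. In parallel, pots of the same soil were sown for postemergence application once plants reached 2 to 10 cm and the one- to two-leaf stage. Both used surfactant-containing non-phytotoxic solvent formulations.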

[2] = tested on: Pigweed, Palmer (palmer amaranth, palmer pigweed, Amaranthus palmeri); test: Test A1 preemergence, Pigweed, Palmer
Method in brief: as §1

[3] = tested on: soybean (Glycine max); test: Test A1 preemergence, soybean
Method in brief: as §1

[4] = tested on: wheat (Triticum aestivum); test: Test A1 preemergence, wheat
Method in brief: as §1

[5] = tested on: Oat, Wild (wild oat, Avena fatua); test: Test A1 postemergence, Oat, Wild; settings: for Oat, Wild plant response rating: 31 g ai/ha, postemergence; for Plant response rating, Oat, Wild: Postemergence, 125 g ai/ha
Method in brief: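 Test compounds were formulated in a non-phytotoxic solvent mixture containing a surfactant. For preemergence, seeds sown in a loam soil–sand blend received a directed soil spray. For postemergence, potted plants in the same soil, 2 to 10 cm tall at the one- to two-leaf stage, were sprayed.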

[6] = 31 g ai/ha, 0 to 100 scale (0 no effect, 100 complete control)
[7] = 125 g ai/ha, 0 to 100 scale, 0 no effect, 100 complete control
[8] = 0 to 100 scale (0 no effect, 100 complete control)

Row | SMILES | Plant response rating, Oat, Wild [1, 6] | Plant response rating, Oat, Wild [1, 7] | Plant response rating, Pigweed, Palmer [2, 6] | Plant response rating, Pigweed, Palmer [2, 7] | Plant response rating, Soybean [3, 6] | Plant response rating, Soybean [3, 7] | Plant response rating, Wheat [4, 6] | Plant response rating, Wheat [4, 7] | Oat, Wild plant response rating [5, 8] | Plant response rating, Oat, Wild ([5]; 0 to 100 scale) | Plant response rating, Oat, Wild ([5]; 0 to 100 scale (0 no effect, 100 complete control), 10 days)
1 | Cc1c(C(=O)N2C[C@@H](C)O[C@H](C)C2)cc(N(COC(=O)C(C)(C)C)S(=O)(=O)C(F)(F)F)c(C)c1C (relative stereo) [Compound 373] | 0 | 0 | 20 | 40 | 0 | 10 | 0 | 20 | 0 | 10 | 
2 | CCOC(=O)N(c1cc(C(=O)N2C[C@@H](C)O[C@H](C)C2)c(C)c(C)c1C)S(=O)(=O)C(F)(F)F (relative stereo) [Compound 374] | 0 | 30 | 60 | 80 | 0 | 70 | 0 | 30 | 0 | 10 | 
3 | Cc1c(NS(=O)(=O)C(F)(F)F)cc(C(=O)N2CCC(C)CC2)c(C)c1C [Compound 366] | 10 | 30 | 100 | 100 | 0 | 50 | 0 | 10 | 0 | 0 | 
4 | COC1CCN(C(=O)c2cc(NS(=O)(=O)C(F)(F)F)c(C)c(C)c2C)CC1 [Compound 367] | 20 | 30 | 80 | 100 | 0 | 90 | 10 | 40 | 0 | 0 | 
5 | C#CCN(C)C(=O)c1cc(NS(=O)(=O)C(F)(F)F)c(C)c(C)c1C [Compound 368] | 10 | 20 | 100 | 100 | 90 | 100 | 20 | 100 | 0 | 10 | 
6 | COC1CCN(C(=O)c2cc(N(COC(=O)C(C)(C)C)S(=O)(=O)C(F)(F)F)c(C)c(C)c2C)CC1 [Compound 370] | 0 | 0 | 30 | 70 | 0 | 0 | 0 | 10 | 0 | 0 | 
7 | C#CCN(C)C(=O)c1cc(N(COC(=O)C(C)(C)C)S(=O)(=O)C(F)(F)F)c(C)c(C)c1C [Compound 371] | 0 | 0 | 10 | 80 | 0 | 60 | 0 | 10 | 0 | 0 | 
8 | Cc1cc(C)c(C2=NOC3OCCCC23)cc1NS(=O)(=O)C(F)(F)F (stereo not shown) [Compound 372] | 0 | 20 | 40 | 90 | 0 | 50 | 10 | 30 | 0 | 10 | 
9 | CCC1CC(c2cc(NS(=O)(=O)C(F)(F)F)c(C)cc2C)=NO1 (stereo not shown) [Compound 375] | 0 | 20 | 0 | 80 | 0 | 30 | 0 | 100 | 0 | 0 | 
10 | CCC1CC(c2cc(N(COC(=O)C(C)(C)C)S(=O)(=O)C(F)(F)F)c(C)cc2C)=NO1 (stereo not shown) [Compound 376] | 0 | 10 | 0 | 40 | 0 | 0 | 0 | 20 | 0 | 0 | 
11 | Cc1ccc(C2=NOC3CCCC23)cc1NS(=O)(=O)C(F)(F)F (stereo not shown) [Compound 377] | 0 | 0 | 0 | 0 | 0 | 0 | 0 | 20 | 0 | 0 | 
12 | CCc1cc(C)c(N(COC(=O)C(C)(C)C)S(=O)(=O)C(F)(F)F)cc1C1=NOC2CCCC12 (stereo not shown) [Compound 378] | 10 | 40 | 0 | 20 | 0 | 0 | 10 | 20 | 0 | 30 | 
13 | Cc1c(NS(=O)(=O)C(F)(F)F)cc(C2=NOC3(CCCC3)C2)c(C)c1C [Compound 380] | 20 | 90 | 30 | 40 | 20 | 50 | 30 | 90 | 0 |  | 20
